The source of these data is US20110212027A1, “RADIATIVE HEATING FOR DRUG DELIVERY AND OTHER APPLICATIONS” (priority 2008, published 2011).

A short description of this series: Release from reservoir devices submerged in PBS. It counts as physicochemical. As to conditions: physiologically-triggerable membrane. How it is done: The devices were constructed as follows. Two 1 cm diameter disks were punched out of a membrane sheet produced as described above. A 1 cm length of ⅜ inch OD (¼ inch ID) silicone tubing (currently used for catheters) was then cut and a membrane disk was glued to one side of the tube using a LockTite low viscosity quick drying adhesive. (1 inch=2.54 cm) After 30 minutes of drying (under light pressure), the membrane-backed tube was then filled with drug or indicator solution. Sodium fluorescein (100 mg/mL in saline) and bupivacaine (10 mg/mL in saline, as well as bupivacaine powder in a saturated saline solution with solid chunks of drug also added to give a larger drug reservoir for release) were tested. The top membrane was then attached using glue following the same technique as for the bottom membrane and set for 30 minutes under light pressure. […] For flux testing, the devices were submerged in 5 mL of PBS at a specific test temperature, with samples taken at predetermined intervals to track the release kinetics. For the microwave antenna devices, two 0.4 cm […] strips of aluminum foil were glued to the outside of the device, one at the top of the device and the other at the bottom of the device (with a 0.2 mm gap in the center) using the same adhesive.

Consider `CCCCN1CCCCC1C(=O)Nc1c(C)cccc1C` (centres unmarked) [bupivacaine], for which the “release of bupivacaine from device into PBS” value runs as follows: (37° C.) “below the minimal effective dose”; (50° C.) “above the minimal effective dose”.
